Key:
lambsquarters [1] = experiment: Test Example 5: herbicidal effect by foliage application, plastic box (Table 20, symbol O); type: in vivo, lambsquarters (Chenopodium album); conditions: foliage application, 320 g/ha, three weeks after application
Method in brief: (§1)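 Plants sown in sterilized diluvial soil and grown 14 days in a greenhouse at 25° C to 30° C, then sprayed on the foliage with the compound's emulsion diluted in water to a predetermined herbicide amount. Injury to weeds and crops scored three weeks after application on a visual rating scale.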

wild oat [2] = experiment: Test Example 4: herbicidal effect by soil treatment (Table 19, symbol I); type: in vivo, wild oat (Avena fatua); conditions: amount of applied herbicide 320 g/ha
Method in brief: (§2)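 Seeds were sown in sterilized diluvial soil and covered with about 1.5 cm of soil. An emulsion formulation diluted with water to a predetermined herbicide amount was sprayed evenly onto the soil surface. Plants grew in a greenhouse at 25° C. to 30° C., and the effect was scored three weeks after application using criteria from an earlier test.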

Italian ryegrass [3] = experiment: Test Example 5: herbicidal effect by foliage application, plastic box (Table 20, symbol K); type: in vivo, Italian ryegrass (Lolium multiflorum); conditions: foliage application, 320 g/ha, three weeks after application
Method in brief: as §1

redroot pigweed [4] = experiment: Test Example 5: herbicidal effect by foliage application, plastic box (Table 20, symbol N); type: in vivo, redroot pigweed (Amaranthus retroflexus); conditions: foliage application, 320 g/ha, three weeks after application
Method in brief: as §1

lambsquarters [5] = experiment: Test Example 4: herbicidal effect by soil treatment (Table 19, symbol O); type: in vivo, lambsquarters (Chenopodium album); conditions: amount of applied herbicide 320 g/ha
Method in brief: as §2

persian speedwell [6] = experiment: Test Example 4: herbicidal effect by soil treatment (Table 19, symbol R); type: in vivo, Persian speedwell (Veronica persica); conditions: amount of applied herbicide 320 g/ha
Method in brief: as §2

chickweed [7] = experiment: Test Example 4: herbicidal effect by soil treatment (Table 19, symbol P); type: in vivo, common chickweed (Stellaria media); conditions: amount of applied herbicide 320 g/ha
Method in brief: as §2

false cleavers = experiment: Test Example 4: herbicidal effect by soil treatment (Table 19, symbol Q); type: in vivo, false cleavers (Galium spurium); conditions: amount of applied herbicide 320 g/ha
Method in brief: as §2

barnyard grass [8] = experiment: Test Example 4: herbicidal effect by soil treatment (Table 19, symbol H); type: in vivo, barnyard grass (Echinochloa crus-galli); conditions: amount of applied herbicide 320 g/ha
Method in brief: as §2

southern crabgrass [9] = experiment: Test Example 4: herbicidal effect by soil treatment (Table 19, symbol F); type: in vivo, southern crabgrass (Digitaria ciliaris); conditions: amount of applied herbicide 320 g/ha
Method in brief: as §2

barnyard grass [10] = experiment: Test Example 5: herbicidal effect by foliage application, plastic box (Table 20, symbol H); type: in vivo, barnyard grass (Echinochloa crus-galli); conditions: foliage application, 320 g/ha, three weeks after application
Method in brief: as §1

chickweed [11] = experiment: Test Example 5: herbicidal effect by foliage application, plastic box (Table 20, symbol P); type: in vivo, common chickweed (Stellaria media); conditions: foliage application, 320 g/ha, three weeks after application
Method in brief: as §1

southern crabgrass [12] = experiment: Test Example 5: herbicidal effect by foliage application, plastic box (Table 20, symbol F); type: in vivo, southern crabgrass (Digitaria ciliaris); conditions: foliage application, 320 g/ha, three weeks after application
Method in brief: as §1

green foxtail [13] = experiment: Test Example 5: herbicidal effect by foliage application, plastic box (Table 20, symbol G); type: in vivo, green foxtail (Setaria viridis); conditions: foliage application, 320 g/ha, three weeks after application
Method in brief: as §1

velvetleaf [14] = experiment: Test Example 5: herbicidal effect by foliage application, plastic box (Table 20, symbol M); type: in vivo, velvetleaf (Abutilon theophrasti); conditions: foliage application, 320 g/ha, three weeks after application
Method in brief: as §1

blackgrass [15] = experiment: Test Example 5: herbicidal effect by foliage application, plastic box (Table 20, symbol J); type: in vivo, blackgrass (Alopecurus myosuroides); conditions: foliage application, 320 g/ha, three weeks after application
Method in brief: as §1

Italian ryegrass [16] = experiment: Test Example 4: herbicidal effect by soil treatment (Table 19, symbol K); type: in vivo, Italian ryegrass (Lolium multiflorum); conditions: amount of applied herbicide 320 g/ha
Method in brief: as §2

windgrass [17] = experiment: Test Example 5: herbicidal effect by foliage application, plastic box (Table 20, symbol L); type: in vivo, windgrass (Apera spica-venti); conditions: foliage application, 320 g/ha, three weeks after application
Method in brief: as §1

persian speedwell [18] = experiment: Test Example 5: herbicidal effect by foliage application, plastic box (Table 20, symbol R); type: in vivo, Persian speedwell (Veronica persica); conditions: foliage application, 320 g/ha, three weeks after application
Method in brief: as §1

green foxtail [19] = experiment: Test Example 4: herbicidal effect by soil treatment (Table 19, symbol G); type: in vivo, green foxtail (Setaria viridis); conditions: amount of applied herbicide 320 g/ha
Method in brief: as §2

windgrass [20] = experiment: Test Example 4: herbicidal effect by soil treatment (Table 19, symbol L); type: in vivo, windgrass (Apera spica-venti); conditions: amount of applied herbicide 320 g/ha
Method in brief: as §2

redroot pigweed [21] = experiment: Test Example 4: herbicidal effect by soil treatment (Table 19, symbol N); type: in vivo, redroot pigweed (Amaranthus retroflexus); conditions: amount of applied herbicide 320 g/ha
Method in brief: as §2

velvetleaf [22] = experiment: Test Example 4: herbicidal effect by soil treatment (Table 19, symbol M); type: in vivo, velvetleaf (Abutilon theophrasti); conditions: amount of applied herbicide 320 g/ha
Method in brief: as §2

blackgrass [23] = experiment: Test Example 4: herbicidal effect by soil treatment (Table 19, symbol J); type: in vivo, blackgrass (Alopecurus myosuroides); conditions: amount of applied herbicide 320 g/ha
Method in brief: as §2

wild oat [24] = experiment: Test Example 5: herbicidal effect by foliage application, plastic box (Table 20, symbol I); type: in vivo, wild oat (Avena fatua); conditions: foliage application, 320 g/ha, three weeks after application
Method in brief: as §1

SMILES: Cc1nn(C)c(=O)c(-c2c(-c3ccc(SCC#N)cc3)sc3ccc(F)cc23)c1O [2-423]
- O: lambsquarters, herbicidal effect grade (lambsquarters [1]): 5 (Herbicidal rate of 90% or more (almost completely withered))
- herbicidal effect, I: wild oat (wild oat [2]): 0 (Herbicidal rate of 5% or less (almost no effect))
- K: Italian ryegrass, herbicidal effect grade (Italian ryegrass [3]): 5 (Herbicidal rate of 90% or more (almost completely withered))
- N: redroot pigweed, herbicidal effect grade (redroot pigweed [4]): 5 (Herbicidal rate of 90% or more (almost completely withered))
- herbicidal effect, O: lambsquarters (lambsquarters [5]): 4 (Herbicidal rate of 70% or more and less than 90%)
- herbicidal effect, R: persian speedwell (persian speedwell [6]): 4 (Herbicidal rate of 70% or more and less than 90%)
- herbicidal effect, P: chickweed (chickweed [7]): 5 (Herbicidal rate of 90% or more (almost completely withered))
- herbicidal effect, Q: false cleavers (false cleavers): 0 (Herbicidal rate of 5% or less (almost no effect))
- herbicidal effect, H: barnyard grass (barnyard grass [8]): 1 (Herbicidal rate of 5% or more and less than 20%)
- herbicidal effect, F: southern crabgrass (southern crabgrass [9]): 0 (Herbicidal rate of 5% or less (almost no effect))
- H: barnyard grass, herbicidal effect grade (barnyard grass [10]): 5 (Herbicidal rate of 90% or more (almost completely withered))
- P: chickweed, herbicidal effect grade (chickweed [11]): 5 (Herbicidal rate of 90% or more (almost completely withered))
- F: southern crabgrass, herbicidal effect grade (southern crabgrass [12]): 0 (Herbicidal rate of 5% or less (almost no effect))
- G: green foxtail, herbicidal effect grade (green foxtail [13]): 5 (Herbicidal rate of 90% or more (almost completely withered))
- M: velvetleaf, herbicidal effect grade (velvetleaf [14]): 5 (Herbicidal rate of 90% or more (almost completely withered))
- J: blackgrass, herbicidal effect grade (blackgrass [15]): 4 (Herbicidal rate of 70% or more and less than 90%)
- herbicidal effect, K: Italian ryegrass (Italian ryegrass [16]): 3 (Herbicidal rate of 40% or more and less than 70%)
- L: windgrass, herbicidal effect grade (windgrass [17]): 5 (Herbicidal rate of 90% or more (almost completely withered))
- R: persian speedwell, herbicidal effect grade (persian speedwell [18]): 5 (Herbicidal rate of 90% or more (almost completely withered))
- herbicidal effect, G: green foxtail (green foxtail [19]): 4 (Herbicidal rate of 70% or more and less than 90%)
- herbicidal effect, L: windgrass (windgrass [20]): 1 (Herbicidal rate of 5% or more and less than 20%)
- herbicidal effect, N: redroot pigweed (redroot pigweed [21]): 5 (Herbicidal rate of 90% or more (almost completely withered))
- herbicidal effect, M: velvetleaf (velvetleaf [22]): 1 (Herbicidal rate of 5% or more and less than 20%)
- herbicidal effect, J: blackgrass (blackgrass [23]): 0 (Herbicidal rate of 5% or less (almost no effect))
- I: wild oat, herbicidal effect grade (wild oat [24]): 5 (Herbicidal rate of 90% or more (almost completely withered))

Reference: patent US20230085307A1, “PYRIDAZINONE COMPOUND AND HERBICIDE” (NISSAN CHEMICAL CORPORATION, priority 2019, published 2023)
